In ChEMBL document CHEMBL4052676, “Anti-diabetic xanthones from the bark of Garcinia xanthochymus” (Bioorg Med Chem Lett, 2017):

Experiments:
[1] = Inhibition of Saccharomyces cerevisiae alpha-glucosidase pre-incubated for 10 mins before p-nitrophenyl […]-D-glucopyranoside substrate addition and measured every 30 secs for 35 mins post substrate addition
[2] = biological target: T1, Tyrosine-protein phosphatase non-receptor type 1 (Homo sapiens, UniProt P18031); test: Inhibition of human recombinant PTP1B pre-incubated for 10 mins before pnitrophenyl phosphate substrate addition and measured every 30 secs for 10 mins
T1 sequence (P18031 whole entry): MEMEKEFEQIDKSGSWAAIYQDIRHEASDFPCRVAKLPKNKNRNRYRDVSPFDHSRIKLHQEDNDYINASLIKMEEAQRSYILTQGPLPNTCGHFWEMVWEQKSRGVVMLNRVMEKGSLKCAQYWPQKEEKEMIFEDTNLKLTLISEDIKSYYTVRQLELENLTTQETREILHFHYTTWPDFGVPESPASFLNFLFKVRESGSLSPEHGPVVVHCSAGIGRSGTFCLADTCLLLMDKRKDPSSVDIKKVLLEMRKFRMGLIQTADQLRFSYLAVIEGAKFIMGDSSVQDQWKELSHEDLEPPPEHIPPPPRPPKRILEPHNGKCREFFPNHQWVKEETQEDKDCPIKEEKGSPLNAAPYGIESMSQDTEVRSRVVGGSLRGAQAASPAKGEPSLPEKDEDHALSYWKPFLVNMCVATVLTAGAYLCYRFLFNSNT

IC50 [1] | IC50 ([2]; read-out: IC50) [µM] | IC50 ([1]; read-out: IC50) [µM] | IC50 [2] | Compound
Not Active | 150 |  |  | O=c1c2cc(O)ccc2oc2cccc(O)c12
 | 45.2 | 134 |  | C=CC(C)(C)c1cc(O)c(O)c2c(=O)c3cc4ccoc4c(O)c3oc12
 | 73.2 | 29.8 |  | C=CC(C)(C)c1cc(O)c(O)c2c(=O)c3cccc(O)c3oc12
Not Active | 49.4 |  |  | C=CC(C)(C)c1cc(O)c(O)c2c(=O)c3cc4c(c(O)c3oc12)OC(C)(C)C=C4
 | 120 | 31.4 |  | O=c1c2cc(O)ccc2oc2ccc(O)c(O)c12
 | 148 | 358 |  | O=c1c2cccc(O)c2oc2c(O)ccc(O)c12
 | 55.1 | 94.2 |  | COc1c(O)cc2oc3cc4occc4c(O)c3c(=O)c2c1C/C=C(\C)CCC=C(C)C
 | 8 | 36.7 |  | C=CC(C)(C)c1cc(O)c2oc3c(O)c4c(cc3c(=O)c2c1O)C=CC(C)(C)O4
 | 26.8 | 142 |  | C=CC(C)(C)c1cc(O)c2oc3c(O)c4occc4cc3c(=O)c2c1O
 | 85.5 | 27.5 |  | C=CC(C)(C)c1cc(O)c(O)c2c(=O)c3ccc(O)c(O)c3oc12
 |  | 85.5 | Not Active | C=CC(C)(C)c1cc(O)c2oc3c(O)cccc3c(=O)c2c1O
 | 53 | 4.1 |  | C=CC(C)(C)c1cc(O)c2oc3c(O)c(O)ccc3c(=O)c2c1O
 |  | 900 |  | C[C@H]1O[C@H](O[C@H]2[C@H](O)[C@@H](O)[C@@H](O[C@H]3[C@H](O)[C@@H](O)C(O)O[C@@H]3CO)O[C@@H]2CO)[C@H](O)[C@@H](O)[C@@H]1N[C@H]1C=C(CO)[C@@H](O)[C@H](O)[C@H]1O (stereo not given in full) [ACARBOSE]
